Assay results as given in ChEMBL document CHEMBL1158925, “New proazulene guaianolides from Thapsia villosa” (J Nat Prod, 1990).
The source made the active and inactive calls. No cut-off for these calls is given here.

What was measured:
[1] = Skin irritant activity in mouse ear at 10 ug after 24 hrs; format: ADME, tissue-based; conditions: in vivo, topical_or_ocular
Mast cell = experiment: Induction of histamine release in rat peritoneal mast cells at 10 uM; format: functional, cell-based

Structure (SMILES) | Activity [1] | Activity (Mast cell)
CCC(C)C(=O)O[C@H]1C[C@](C)(OC(C)=O)[C@@H]2[C@@H](C(C)=C[C@H]2O)[C@@H]2OC(=O)[C@@](C)(OC(C)=O)[C@@H]21 (stereo not given in full) | Non-toxic | inactive
CC(=O)O[C@@]1(C)C[C@H](OC(=O)C=C(C)C)[C@@H]2[C@@H](OC(=O)[C@@]2(C)OC(C)=O)[C@@H]2C(C)=C[C@@H](O)[C@@H]21 | Non-toxic | inactive
C/C=C(/C)C(=O)O[C@H]1C(C)=C2[C@H]([C@@H]1OC(=O)CCCCCCC)[C@@](C)(OC(C)=O)C[C@H](OC(=O)CCC)[C@@]1(O)[C@H]2OC(=O)[C@@]1(C)O [THAPSIGARGIN] | Non-toxic | inactive
CCC(C)C(=O)O[C@H]1C[C@](C)(OC(C)=O)[C@@H]2[C@@H](C(C)=C[C@H]2OC(C)=O)[C@@H]2OC(=O)[C@@](C)(OC(C)=O)[C@@H]21 (stereo not given in full) | Non-toxic | inactive
CC(=O)O[C@@H]1C=C(C)[C@H]2[C@@H]3OC(=O)[C@@](C)(OC(C)=O)[C@@H]3[C@@H](OC(=O)C=C(C)C)C[C@](C)(OC(C)=O)[C@H]21 | Non-toxic | inactive
